# Measurements reported in patent publication US20150004144A1, “DIFFERENTIATION INTO BROWN ADIPOCYTES” (THE GENERAL HOSPITAL CORPORATION, priority 2011, published 2015).
# Legend:
# [1] = system: hPSC-derived adipocytes; assay: Lipolysis assay (glycerol release); settings: PPARG2-programmed, differentiated ADSVCs and MPCs; ADSVCs P=0.01, MPCs P=0.002; n=3
# Experimental: Lipolysis assay. […] The culture media was collected for glycerol measurement using the Free Glycerol reagent (Sigma #F6428). Protein concentrations used to normalize glycerol content were measured using the Bradford protein assay (BioRad). Glycerol release was expressed in μg glycerol per mg total protein or the lowest value is set to 1.
# [2] = system: hPSC-derived adipocytes; assay: Cellular OCR and ECAR (extracellular flux analyzer); assay type: cell-based, human; settings: all cell types; 5 μM antimycin A after oligomycin and CCCP
# Experimental: To further distinguish between white and brown adipocytes at a functional level, the characterization was extended to the mitochondrial function of our cells. […] Compounds were then injected that modulate mitochondrial function sequentially and the effect on OCR and ECAR was measured after the addition of each compound. Oligomycin was first administered to determine ATP turnover and the degree of proton leak. […] After the addition of the electron transport chain decoupler carbonyl cyanide m-chlorophenylhydrazone (CCCP), the maximal respiratory capacity was measured. […] Finally, antimycin was administered to inhibit the flux of electrons through complex III and prevent oxygen consumption by the cytochrome c oxidase in the mitochondria.
# Measurement of cellular OCR and ECAR. Cells were plated in gelatin-coated XF24-well cell culture microplates (Seahorse Bioscience) and differentiated into adipocytes. Cells were incubated in prewarmed unbuffered DMEM medium (DMEM containing 2 mM GlutaMax, 1 mM sodium pyruvate, 1.85 g/l NaCl, and 25 mM glucose) for 1 hour. The oxygen consumption was measured by the XF24 Extracellular Flux Analyzer (Seahorse Biosciences). […] OCR and ECAR were determined by plotting the oxygen tension and acidification of the medium in the chamber as a function of time and normalized by protein concentration (pmol/min/mg and mpH/min/mg), respectively.
# [3] = system: pAKT(S473); assay: Western blot of insulin-induced AKT phosphorylation; assay type: cell-based, human; settings: programmed white adipocytes, vs basal starved state
# Experimental: Finally, it was determined whether the programmed white adipocytes respond to insulin in a manner similar to mature primary white adipocytes. […] Insulin response was examined by assessing protein expression levels of AKT and phosphorylated AKT [pAKT(S473)] (FIG. 4D).
# Western blot analysis. Western blot analysis was carried out using following antibodies: total AKT (Cell signaling #9272), phospho-Ser 473 AKT (Cell signaling #9271), Lamin A/C (Fisher/Millipore #3211).
# [4] = system: BJ RiPS MPC derived adipocytes; assay: Glucose uptake assay ([3H]-2-deoxy-D-glucose); assay type: cell-based, human; settings: 100 nM insulin 30 min; P=0.05 unprogrammed, P=0.0007 PPARG2-programmed cells
# Experimental: Glucose uptake assay. Adipocytes were serum-starved in 0.2% BSA DMEM overnight. Then, cells were incubated in KRH buffer (121 mM NaCl, 4.9 mM KCl, 1.2 mM MgSO4, 0.33 mM CaCl2, 12 mM HEPES, pH7.4) in the absence or presence of 100 nM insulin for 30 min at 37° C., followed by washing three times in KRH buffer. Glucose uptake was measured by incubating cells with 0.5 μCi/ml 2-deoxy-D-[3H] glucose (Perkin-Elmer) for 5 min at 37° C. After cold PBS washing three times, cells were lysed with 1% Triton X-100 solution and subjected to scintillation counting. Non-specific uptake was measured in the presence of 10 μM of cytochalasin B and subtracted from total uptake.
compound,measurement,setting,value
CC(C)NCC(O)c1ccc(O)c(O)c1 (stereo not shown) [isoproterenol],release of glycerol after isoproterenol,[1],breakdown of triglycerides and release of glycerol
antimycin,OCR after antimycin,[2],dropped to post-oligomycin levels
insulin: insulin (Sigma),pAKT(S473) after insulin,[3],robustly upregulated pAKT(S473)
same,glucose uptake after exposure to insulin,[4],significant increase in the glucose uptake
